We go through six molecules from US10004701B2, “Methods and compositions for treating infection” (UNIVERSITY OF ROCHESTER, priority 2012, dated 2018).

Where two headings read alike, the source gives them in different places.

Holding throughout (experiment): AK assay 384-well format, Prestwick library screening
The test system of one test is E. faecium. In kind it is cell-based, Enterococcus faecium. The settings on record: 50 μM final drug concentration; for fold induction at 50 µM: Enterococcus faecium, 3 h.
Test [1] has as its system S. aureus strain USA300-0114. The test is classed as cell-based, Staphylococcus aureus. The settings on record: 50 μM final drug concentration; for fold induction at 50 µM: Staphylococcus aureus, USA300, 3 h.
A further test concerns K. pneumoniae. The test is classed as cell-based, Klebsiella pneumoniae. The settings on record: 50 μM final drug concentration; for fold induction at 50 µM: Klebsiella pneumoniae, 3 h.
Test [2] deals with A. baumannii strain 98-37-09. The test is classed as cell-based, Acinetobacter baumannii. The settings on record: 50 μM final drug concentration; for fold induction at 50 µM: Acinetobacter baumannii, 983709, 3 h.
Another test deals with P. aeruginosa. The test is classed as cell-based, Pseudomonas aeruginosa. The settings on record: 50 μM final drug concentration; for fold induction at 50 µM: Pseudomonas aeruginosa, 3 h.
The next test deals with E. cloacae. The test is classed as cell-based, Enterobacter cloacae. The settings on record: 50 μM final drug concentration; for fold induction at 50 µM: Enterobacter cloacae, 3 h.
The subject of another test is E. coli. In kind it is cell-based, Escherichia coli. The settings on record: 50 μM final drug concentration; for fold induction at 50 µM: Escherichia coli, 3 h.
The mark [3] stands for this setting: planktonic, cutoff for positive 3-fold increase.
Where [4] appears, read: planktonic, […], read-out: AK-based Prestwick Library Screening Results, E. faecium (fold increase in extracellular AK activity).
Where [5] appears, read: planktonic, […], read-out: AK-based Prestwick Library Screening Results, S. aureus (fold increase in extracellular AK activity).
[6] abbreviates: planktonic, […], read-out: AK-based Prestwick Library Screening Results, K. pneumoniae (fold increase in extracellular AK activity).
The mark [7] stands for this setting: planktonic, […], read-out: AK-based Prestwick Library Screening Results, A. baumannii (fold increase in extracellular AK activity).
Where [8] appears, read: planktonic, […], read-out: AK-based Prestwick Library Screening Results, P. aeruginosa (fold increase in extracellular AK activity).
Where [9] appears, read: planktonic, […], read-out: AK-based Prestwick Library Screening Results, E. cloacae (fold increase in extracellular AK activity).
The mark [10] stands for this setting: planktonic, […], read-out: AK-based Prestwick Library Screening Results, E. coli (fold increase in extracellular AK activity).

As to `CN1CCCN=C1/C=C/c1cccc(O)c1.O=C(O)c1cc2ccccc2c(Cc2c(O)c(C(=O)O)cc3ccccc23)c1O` [Oxantel pamoate], in the test on E. faecium (setting [3]), the “AK-based Prestwick Library Screening Results, E. faecium (fold increase in extracellular AK activity)” value turned out to be 1.0. In addition, the “AK-based Prestwick Library Screening Results, S. aureus (fold increase in extracellular AK activity)” value in test [1] (setting [3]) turned out to be 1.3. Also, in the test with K. pneumoniae (setting [3]), the “AK-based Prestwick Library Screening Results, K. pneumoniae (fold increase in extracellular AK activity)” value is recorded as 1.0. Moreover, in test [2] (setting [3]), the “AK-based Prestwick Library Screening Results, A. baumannii (fold increase in extracellular AK activity)” value was found to be 1.1. For the same molecule, in the test on P. aeruginosa (setting [3]), the “AK-based Prestwick Library Screening Results, P. aeruginosa (fold increase in extracellular AK activity)” value is recorded as 1.0. In addition, the “AK-based Prestwick Library Screening Results, E. cloacae (fold increase in extracellular AK activity)” value in the test with E. cloacae (setting [3]) stood at 1.8. For the same molecule, the “AK-based Prestwick Library Screening Results, E. coli (fold increase in extracellular AK activity)” value in the test on E. coli (setting [3]) is listed as 1.1.

`Clc1ccccc1C(c1ccccc1)(c1ccccc1)n1ccnc1` [Clotrimazole]: the fold induction at 50 µM with E. faecium (384-well format, cutoff for positive-scoring molecules 3-fold increase, read-out: AK-based Prestwick Library Screening Results, E. faecium (increase in extracellular AK activity)) is 1.3; in test [1] (384-well format, cutoff for positive-scoring molecules 3-fold increase, read-out: AK-based Prestwick Library Screening Results, S. aureus (increase in extracellular AK activity)) it was 2; with K. pneumoniae (384-well format, cutoff for positive-scoring molecules 3-fold increase, read-out: AK-based Prestwick Library Screening Results, K. pneumoniae (increase in extracellular AK activity)), 1; in test [2] (384-well format, cutoff for positive-scoring molecules 3-fold increase, read-out: AK-based Prestwick Library Screening Results, A. baumannii (increase in extracellular AK activity)), 3.3; in the test with P. aeruginosa (384-well format, cutoff for positive-scoring molecules 3-fold increase, read-out: AK-based Prestwick Library Screening Results, P. aeruginosa (increase in extracellular AK activity)), 1; in the test with E. cloacae (384-well format, cutoff for positive-scoring molecules 3-fold increase, read-out: AK-based Prestwick Library Screening Results, E. cloacae (increase in extracellular AK activity)) it was 1. Also, the fold induction at 50 µM in the test on E. coli (384-well format, cutoff for positive-scoring molecules 3-fold increase, read-out: AK-based Prestwick Library Screening Results, E. coli (increase in extracellular AK activity)) was 1.

For `CN[C@H]1CC[C@@H](c2ccc(Cl)c(Cl)c2)c2ccccc21` [Sertraline], the fold induction at 50 µM was determined as 1.1 in the test with E. faecium (planktonic E. faecium, positive cutoff 3-fold increase, read-out: AK-based Prestwick library screening result, E. faecium (fold increase in extracellular AK activity)); 1.6 in test [1] (planktonic S. aureus, positive cutoff 3-fold increase, read-out: AK-based Prestwick library screening result, S. aureus (fold increase in extracellular AK activity)); 1.4 with K. pneumoniae (planktonic K. pneumoniae, positive cutoff 3-fold increase, read-out: AK-based Prestwick library screening result, K. pneumoniae (fold increase in extracellular AK activity)); 2.9 in test [2] (planktonic A. baumannii, positive cutoff 3-fold increase, read-out: AK-based Prestwick library screening result, A. baumannii (fold increase in extracellular AK activity)); 1.2 in the test on P. aeruginosa (planktonic P. aeruginosa, positive cutoff 3-fold increase, read-out: AK-based Prestwick library screening result, P. aeruginosa (fold increase in extracellular AK activity)); 1.5 in the test on E. cloacae (planktonic E. cloacae, positive cutoff 3-fold increase, read-out: AK-based Prestwick library screening result, E. cloacae (fold increase in extracellular AK activity)). The fold induction at 50 µM with E. coli (planktonic E. coli, positive cutoff 3-fold increase, read-out: AK-based Prestwick library screening result, E. coli (fold increase in extracellular AK activity)) came out at 1.6.

As for `COc1cnc(NS(=O)(=O)c2ccc(N)cc2)nc1` [Sulfameter], the fold induction at 50 µM amounted to 1 in the test on E. faecium (setting [4]); 1.2 in test [1] (setting [5]); 1 in the test with K. pneumoniae (setting [6]); 2.3 in test [2] (setting [7]); 1.1 in the test with P. aeruginosa (setting [8]); 1.2 in the test with E. cloacae (setting [9]). In addition, the fold induction at 50 µM in the test with E. coli (setting [10]) turned out to be 1.3.

Take `CN(C)CCC=C1c2ccccc2CCc2ccccc21.Cl` [Amitryptiline hydrochloride]: the “AK-based Prestwick Library Screening Results: E. faecium (increase in extracellular AK activity)” value in the test on E. faecium (planktonic E. faecium, 384-well, […]) is on record as 1.0. Also, in test [1] (planktonic S. aureus, 384-well, […]), the “AK-based Prestwick Library Screening Results: S. aureus (increase in extracellular AK activity)” value came out at 1.4. For the same molecule, the “AK-based Prestwick Library Screening Results: K. pneumoniae (increase in extracellular AK activity)” value with K. pneumoniae (planktonic K. pneumoniae, 384-well, […]) was determined as 1.1. For the same molecule, in test [2] (planktonic A. baumannii, 384-well, […]), the “AK-based Prestwick Library Screening Results: A. baumannii (increase in extracellular AK activity)” value is listed as 1.3. Moreover, the “AK-based Prestwick Library Screening Results: P. aeruginosa (increase in extracellular AK activity)” value in the test with P. aeruginosa (planktonic P. aeruginosa, 384-well, […]) was found to be 1.0. Also, in the test with E. cloacae (planktonic E. cloacae, 384-well, […]), the “AK-based Prestwick Library Screening Results: E. cloacae (increase in extracellular AK activity)” value is 1.8. The “AK-based Prestwick Library Screening Results: E. coli (increase in extracellular AK activity)” value in the test with E. coli (planktonic E. coli, 384-well, […]) is on record as 1.2.

For the molecule `CCN1C[C@]2(C)CC[C@H](OC)[C@@]34C1[C@]1(OCO[C@@]15C[C@H](OC)[C@H]1C[C@]3(O)[C@@H]5[C@H]1OC)[C@@H](OC(C)=O)[C@H]24` [Deltaline], the fold induction at 50 µM with E. faecium (setting [4]) is 0.9; in test [1] (setting [5]), 0.8; with K. pneumoniae (setting [6]) it was 0.7; in test [2] (setting [7]) it was 0.8; with P. aeruginosa (setting [8]) it was 0.8; in the test with E. cloacae (setting [9]), 1.1. In the test on E. coli (setting [10]), the fold induction at 50 µM is 0.9.
